Source: patent US11986480B2, “Heterocyclic compound” (TOHOKU UNIVERSITY, priority 2017, dated 2024)
Counter-ions that a name gives are not always drawn.

These compounds were tested on EmGFP-HaloTag (assay: Test Example 1: HeLa cells stably expressing EmGFP-HaloTag, Western blot GFP/actin (Testing Method A)). Details: 1 uM, 24 hours, 1 or less = degradation promoted.
Format: cell-based
Protocol: Test Example 1: Evaluation Method Using Cell Stably Expressing EmGFP-HaloTag (Testing Method A)
HeLa cells stably expressing EmGFP-HaloTag were inoculated to Dulbecco's Modified Eagle Medium (DMEM) and cultured for 24 hours. Then, a test compound (specifically, compounds of Examples 1 to 7, 9 to 11, 13 to 15, 17 to 20, 24 to 27, 29, 32 to 33, 36 to 42, 44 to 46 and 56) was added thereto at the final concentration shown in Table 2, followed by incubation for 24 hours under conditions of 37° C./5% CO2. The cells were washed with PBS three times and treated with a cell lysis solution containing a proteolytic enzyme inhibitor to obtain a cell extract. The cell extract was subjected to SDS-PAGE. After the electrophoresis, GFP and actin were detected by Western blot. The ratio of the GFP/actin value of the drug-treated cells to the GFP/actin value of a control group in drug-untreated cells was regarded as an activity value. A value of 1 or less represents that degradation of EmGFP-HaloTag was promoted.

| Compound | Activity value (GFP/actin of drug-treated cells relative to drug-untreated control) |
| --- | --- |
| Nc1nc2c(nc(C(=O)NCCOCCOCCOCCOCCOCCCCCCCl)n2Cc2ccc(F)cc2)c(=O)[nH]1 [Example 33, 2-Amino-N-(21-chloro-3,6,9,12,15-pentaoxahenicos-1-yl)-9-(4-fluorobenzyl)-6-oxo-6,9-dihydro-1H-purine-8-carboxamide] | 0.9 |
| Nc1nc2c(nc(/C=C/C(=O)NCCOCCOCCOCCOCCOCCCCCCCl)n2Cc2ccc(F)cc2)c(=O)[nH]1 [Example 5, (2E)-3-(2-Amino-9-(4-fluorobenzyl)-6-oxo-6,9-dihydro-1H-purin-8-yl)-N-(21-chloro-3,6,9,12,15-pentaoxahenicos-1-yl)acrylamide] | 0.3 |
| CC(=O)N[C@@H](CSc1nc2c(=O)[nH]c(N)nc2n1-c1ccccc1)C(=O)NCCOCCOCCOCCOCCOCCCCCCCl [Example 40, N^2-acetyl-S-(2-amino-6-oxo-9-phenyl-6,9-dihydro-1H-purin-8-yl)-N-(21-chloro-3,6,9,12,15-pentaoxahenicos-1-yl)-L-cysteinamide] | 0.7 |
| CC(=O)N[C@@H](CSc1nc2c(=O)[nH]c(N)nc2n1Cc1cncs1)C(=O)NCCOCCOCCOCCOCCOCCCCCCCl [Example 42, N^2-acetyl-S-(2-amino-6-oxo-9-(1,3-thiazole-5-ylmethyl)-6,9-dihydro-1H-purin-8-yl)-N-(21-chloro-3,6,9,12,15-pentaoxahenicos-1-yl)-L-cysteinamide] | 0.8 |
| CC(=O)N[C@@H](CSc1nc2c(=O)n3cc[nH]c3nc2n1Cc1ccc(F)cc1)C(=O)NCCOCCOCCOCCOCCOCCCCCCCl [Example 44, N^2-Acetyl-N-(21-chloro-3,6,9,12,15-pentaoxahenicos-1-yl)-S-(3-(4-fluorobenzyl)-9-oxo-5,9-dihydro-3H-imidazo[1,2-a]purin-2-yl)-L-cysteinamide] | 0.9 |

Same assay, conditions: 10 uM, 24 hours, 1 or less = degradation promoted

| Compound | Activity value (GFP/actin of drug-treated cells relative to drug-untreated control) |
| --- | --- |
| Nc1nc2c(nc(-c3ccc(OCCOCCOCCOCCOCCOCCCCCCCl)cc3)n2Cc2ccc(F)cc2)c(=O)[nH]1 [Example 11, 2-amino-8-(4-((21-chloro-3,6,9,12,15-pentaoxahenicos-1-yl)oxy)phenyl)-9-(4-fluorobenzyl)-1,9-dihydro-6H-purin-6-enea] | 0.7 |
| Nc1nc2c(nc(-c3cccc(C(=O)NCCOCCOCCOCCOCCOCCCCCCCl)c3)n2Cc2ccc(F)cc2)c(=O)[nH]1 [Example 4, 3-(2-amino-9-(4-fluorobenzyl)-6-oxo-6,9-dihydro-1H-purin-8-yl)-N-(21-chloro-3,6,9,12,15-pentnoxahenicos-1-yl)benzamide] | 0.8 |
| CC(=O)N[C@@H](CSc1c(NCc2ccc(F)cc2)nc(N)[nH]c1=O)C(=O)NCCOCCOCCOCCOCCOCCCCCCCl [Example 19, N^2-Acetyl-S-(2-amino-4-((4-fluorobenzyl)amino)-6-oxo-1,6-dihydropyrimidin-5-yl)-N-(21-chloro-3,6,9,12,15-pentaoxahenicos-1-yl)-L-cysteinamide Trifluoroacetate] | 0.5 |

Same assay, conditions: 100 uM, 24 hours, 1 or less = degradation promoted

| Compound | Activity value (GFP/actin of drug-treated cells relative to drug-untreated control) |
| --- | --- |
| Nc1nc2c(nc(CNCCOCCOCCOCCOCCOCCCCCCCl)n2Cc2ccc(F)cc2)c(=O)[nH]1 [Example 32, 2-Amino-8-(23-chloro-5,8,11,14,17-pentaoxa-2-azatricos-1-yl)-9-(4-fluorobenzyl)-1,9-dihydro-6H-purin-6-one] | 0.7 |

The compounds below were run against Brd4 (Homo sapiens, UniProt O60885) (assay: Test Example 3: HeLa cells, Western blot Brd4/actin (Testing Method C)). Details: BRD4, 10 uM, 24 hours, 1 or less = degradation promoted.
Format: cell-based
Design: endogenous in cells; host or cells: HeLa
Protocol: Test Example 3: Evaluation Using HeLa Cell (Testing Method C)
HeLa cells were inoculated to Dulbecco's Modified Eagle Medium (DMEM) and cultured for 24 hours. A test compound (specifically, compounds of Examples 47 to 52, 59 and 60) was added thereto at the final concentration shown in Table 2, followed by incubation for 24 hours under conditions of 37° C./5% CO2. The cells were washed with PBS three times and treated with a cell lysis solution containing a proteolytic enzyme inhibitor to obtain a cell extract. The cell extract was subjected to SDS-PAGE. After the electrophoresis, Brd4, FKBP12 or MetAP2 and actin were detected by Western blot. The ratio of the Brd4, FKBP12 or MetAP2/actin value of the drug-treated cells to the Brd4, FKBP12 or MetAP2/actin value of a control group in drug-untreated cells was regarded as an activity value. A value of 1 or less represents that degradation of Brd4, FKBP12 or MetAP2 was promoted.

| Activity value (Brd4/actin of drug-treated cells relative to drug-untreated control) | Compound |
| --- | --- |
| 0.8 | Cc1sc2c(c1C)C(c1ccc(Cl)cc1)=N[C@@H](CC(=O)NCCOCCOCCOCCNC(=O)/C=C/c1nc3c(=O)[nH]c(N)nc3n1Cc1ccc(F)cc1)c1nnc(C)n1-2 [Example 52, (2E)-3-(2-Amino-9-(4-fluorobenzyl)-6-oxo-6,9-dihydro-1H-purin-8-yl)-N-(14-((6S)-4-(4-chlorophenyl)-2,3,9-trimethyl-6H-thieno[3,2-f][1,2,4]triazolo[4,3-a][1,4]diazepin-6-yl)-13-oxo-3,6,9-trioxa-12-azatetradec-1-yl)acrylamide] |

What follows are compounds tested on EmGFP-HaloTag (assay: Test Example 2: HeLa cells transiently overexpressing EmGFP-HaloTag, Western blot GFP/actin (Testing Method B)). Details: 1 uM, 24 hours, 1 or less = degradation promoted.
Format: cell-based
Protocol: Test Example 2: Evaluation Using Cell Transiently Overexpressing EmGFP-HaloTag (Testing Method B)
HeLa cells were inoculated to Dulbecco's Modified Eagle Medium (DMEM) and cultured for 24 hours. Cells overexpressing EmGFP-HaloTag were obtained by transfection with a plasmid pCMV-EmGFP-HaloTag encoding EmGFP-HaloTag. On the next day, a test compound (specifically, compounds of Examples 8, 12, 16, 21 to 23, 28, 30 and 31) was added thereto at the final concentration shown in Table 2, followed by incubation for 24 hours under conditions of 37° C./5% CO2. The cells were washed with PBS three times and treated with a cell lysis solution containing a proteolytic enzyme inhibitor to obtain a cell extract. The cell extract was subjected to SDS-PAGE. After the electrophoresis, GFP and actin were detected by Western blot. The ratio of the GFP/actin value of the drug-treated cells to the GFP/actin value of a control group in drug-untreated cells was regarded as an activity value. A value of 1 or less represents that degradation of EmGFP-HaloTag was promoted.

| Compound | Activity value (GFP/actin of drug-treated cells relative to drug-untreated control) |
| --- | --- |
| Nc1nc2c(nc(NCCC(=O)NCCOCCOCCOCCOCCOCCCCCCCl)n2Cc2ccc(F)cc2)c(=O)[nH]1 [Example 8, N^3-(2-Amino-9-(4-fluorobenzyl)-6-oxo-6,9-dihydro-1H-purin-8-yl)-N-(21-chloro-3,6,9,12,15-pentaoxahenicos-1-yl)-β-alaninamide] | 0.7 |
| Nc1nc2c(nc(CCCOCCOCCOCCOCCOCCOCCCCCCCl)n2Cc2ccc(F)cc2)c(=O)[nH]1 [Example 31, 2-Amino-8-(25-chloro-4,7,10,13,16,19-hexaoxapentacos-1-yl)-9-(4-fluorobenzyl)-1,9-dihydro-6H-purin-6-one] | 0.4 |
| CC(=O)N[C@@H](CSc1nc2c(=O)n(C)c(N)nc2n1Cc1ccc(F)cc1)C(=O)NCCOCCOCCOCCOCCOCCCCCCCl [Example 30, N^2-Acetyl-S-(2-amino-9-(4-fluorobenzyl)-1-methyl-6-oxo-6,9-dihydro-1H-purin-8-yl)-N— (21-chloro-3,6,9,12,15-pentaoxahenicos-1-yl)-L-cysteinamide] | 0.2 |
| CC(=O)N[C@@H](CSc1nc2c(=O)[nH]c(N)nc2n1C1CCCCC1)C(=O)NCCOCCOCCOCCOCCOCCCCCCCl [Example 28, N^2-acetyl-S-(2-amino-9-cyclohexyl-6-oxo-6,9-dihydro-1H-purin-8-yl)-N-(21-chloro-3,6,9,12,15-pentaoxahenicos-1-yl)-L-cysteinamide] | 0.4 |
| CC(=O)N[C@@H](CSc1cn(Cc2ccc(F)cc2)c(=O)nc1N)C(=O)NCCOCCOCCOCCOCCOCCCCCCCl [Example 21, N^2-Acetyl-S-(4-amino-1-(4-fluorobenzyl)-2-oxo-1,2-dihydropyrimidin-5-yl)-N-(21-chloro-3,6,9,12,15-pentaoxahenicos-1-yl)-L-cysteinamide Trifluoroacetate] | 0.3 |
| CC(=O)N[C@@H](CSc1nc2c(=O)[nH]c(N)nc2n1Cc1cccc(F)c1)C(=O)NCCOCCOCCOCCOCCOCCCCCCCl [Example 23] | 0.7 |

Same assay, conditions: 10 uM, 24 hours, 1 or less = degradation promoted

| Compound | Activity value (GFP/actin of drug-treated cells relative to drug-untreated control) |
| --- | --- |
| CC(=O)N[C@@H](CSc1nc2c(=O)[nH]c(N)nc2n1Cc1ccccc1F)C(=O)NCCOCCOCCOCCOCCOCCCCCCCl [Example 22, N^2-acetyl-S-(2-amino-9-(2-fluorobonzvl)-6-oxo-6,9-dihydro-1H-purin-8-yl)-N-(21-chloro-3,6,9,12,15-pentaoxahenicos-1-yl)-L-cysteinamide] | 0.7 |
| Nc1nc2c(nc(C#CCOCCOCCOCCOCCOCCOCCCCCCCl)n2Cc2ccc(F)cc2)c(=O)[nH]1 [Example 16, 2-Amino-8-(25-chloro-4,7,10,13,16,19-hexaoxapentacos-1-yn-1-yl)-9-(4-fluorobenzyl)-1,9-dihydro-6H-purin-6-one] | 0.4 |
| CC(=O)N[C@@H](CSc1nc2c(=O)[nH]c(N)nc2n1C1CCCC1)C(=O)NCCOCCOCCOCCOCCOCCCCCCCl [Example 12, N^2-Acetyl-S-(2-amino-9-cyclopentyl-6-oxo-6,9-dihydro-1H-purin-8-yl)-N-(21-chloro-3,6,9,12,15-pentaoxahenicos-1-yl)-L-cysteinamide] | 0.45 |
